Results: patent US11542266B1, “Substituted piperidines as BTK inhibitors” (HAISCO PHARMACEUTICALS PTE. LTD., priority 2019, dated 2023)
Counter-ions that a name gives are not always drawn. Like-named read-outs stand apart in the source and are kept apart here.

Experiments:
SU-DHL-6 cells = experiment: Inhibition of cell proliferation, SU-DHL-6 cells (Cell Viability Assay, 72 h); type: cell-based; details: Homo sapiens
Method: (§1) SU-DHL-4, Mino, and SU-DHL-6 cells, in the culture medium of RPMI1640+10% FBS, were cultured in an incubator at 37° C. under 5% CO2. Cells were plated in a 96-well plate. Specifically, SU-DHL-4 cells were at 20000/well, Mino and SU-DHL-6 cells were at 5000/well, with 90 μL/well. 10 μL of the compounds at different concentrations were added to each well. There were 3 replicate wells for each concentration, and the last column, added with DMSO, was used as a vehicle control group. The cultures were continued for 72 hours at 37° C. under 5% CO2. After 72 hours, 100 μL of detection reagent (Cell Viability Assay, Promega, G7573) was added to each well, and the cultures were uniformly mixed for 2 minutes, and incubated at room temperature for 10 minutes. The fluorescence signal value was measured with a microplate reader (PHERAstar FSX). The IC50 value of the compound on cell proliferation inhibition was calculated using Origin 9.2 software, and the inhibition rate at the highest concentration of the compound (Max inhi. %) was calculated according to formula (1). Max inhi. %=(1-T72 administration/T72 vehicle)×100 Formula (1).

Mino cells = experiment: Inhibition of cell proliferation, Mino cells (Cell Viability Assay, 72 h); type: cell-based, human
Method: as §1

[1] = Pharmacokinetic experiment in rats (i.g. vehicle 0.5% MC); type: in vivo; details: male SD rats; for AUC(0-t): i.g. 20 mg/kg, vehicle 0.5% MC
Method: Objective: In this experiment, a single dose of each test compound was administered to SD rats intravenously and intragastrically, the concentrations of the test compound in plasma of rats were measured, and the pharmacokinetic characteristics and bioavailability of the test compound in rats were evaluated.
Experimental animals: Male SD rats, 200-250 g, 6-8 weeks old, 6 rats/test compound. The experimental animals were purchased from CHENGDU DOSSY EXPERIMENTAL ANIMALS CO., LTD.
Experimental method: On the day of the experiment, 6 SD rats were randomly grouped according to their body weight. The animals were fasted with water available for 12 to 14 hours one day before the administration of a test compound, and were fed 4 hours after the administration.
Sampling: Before and after the administration, 0.1 ml of blood was taken from the orbit of the rats under isoflurane anesthesia, and placed in an EDTAK2 centrifuge tube. Centrifugation was carried out at 5000 rpm at 4° C. for 10 min and the plasma was collected.
Time points for plasma collection in G1 group: 0, 5 m, 15 m, 30 m, 1 h, 2 h, 4 h, 6 h, 8 h, and 24 h.
Time points for plasma collection in G2 group: 0, 15 m, 30 m, 1 h, 2 h, 4 h, 6 h, 8 h, and 24 h.
Before analysis and detection, all samples were stored at −80° C. The samples were analyzed quantitatively by LC-MS/MS.

SU-DHL-4 cells = experiment: Inhibition of cell proliferation, SU-DHL-4 cells (Cell Viability Assay, 72 h); type: cell-based, human; details: Homo sapiens
Method: as §1

[2] = Sprague-Dawley (SD), rat, po, plasma, read-out: AUC0-t

Compound `Nc1ncnc2c1c(-c1ccc(Oc3ccccc3)cc1)nn2C1CCN(CC2CCN(C3CN(c4ccc5c(c4)C(=O)N(C4CCC(=O)NC4=O)C5=O)C3)CC2)CC1` (stereo not drawn) [Compound 6, 5-(3-(4-((4-(4-amino-3-(4-phenoxyphenyl)-1H-pyrazolo[3,4-d]pyrimidin-1-yl)piperidin-1-yl)methyl)piperidin-1-yl)azetidin-1-yl)-2-(2,6-dioxopiperidin-3-yl)isoindoline-1,3-dione tritrifluoroacetate] has an IC50 (SU-DHL-6 cells) of 166 nM, an IC50 (Mino cells; Homo sapiens) of 421 nM and an AUC(0-t) [1, 2] of 328 ± 41 ng·h/mL.
`Nc1ncnc2c1c(-c1ccc(Oc3ccccc3)cc1)nn2C1CCN(C2CCN(C3CCN(C4CCN(c5ccc6c(c5)C(=O)N(C5CCC(=O)NC5=O)C6=O)CC4)CC3)CC2)CC1` (stereo not drawn) [Compound 12, 5-[4-[4-[4-[4-[4-amino-3-(4-phenoxyphenyl)pyrazolo[3,4-d]pyrimidin-1-yl]-1-piperidyl]-1-piperidyl]-1-piperidyl]-1-piperidyl]-2-(2,6-dioxo-3-piperidyl)isoindoline-1,3-dione pentatrifluoroacetate] showed an IC50 (SU-DHL-6 cells) of 106 nM, an IC50 (SU-DHL-4 cells) of 56 nM and an IC50 (Mino cells; Homo sapiens) of 183 nM.
Compound `Nc1ncnc2c1c(-c1ccc(Oc3ccccc3)cc1)nn2C1CCN(C2CN(C3CCN(C4CCN(C5CCN(c6ccc7c(c6)C(=O)N(C6CCC(=O)NC6=O)C7=O)CC5)CC4)CC3)C2)CC1` (stereo not drawn) [Compound 11, 5-[4-[4-[4-[3-[4-[4-amino-3-(4-phenoxyphenyl)pyrazolo[3,4-d]pyrimidin-1-yl]-1-piperidyl]azetidin-1-yl]-1-piperidyl]-1-piperidyl]-1-piperidyl]-2-(2,6-dioxo-3-piperidyl)isoindoline-1,3-dione Hexatrifluoroacetate] has an IC50 (SU-DHL-6 cells) of 109 nM, an IC50 (SU-DHL-4 cells) of 189 nM and an IC50 (Mino cells; Homo sapiens) of 114 nM.
With `Nc1ncnc2c1c(-c1ccc(Oc3ccccc3)cc1)nn2C1CCN(CC2CCN(C3CCN(c4ccc5c(c4)C(=O)N(C4CCC(=O)NC4=O)C5=O)CC3)CC2)CC1` (stereo not drawn) [Compound 9, 5-(4-((4-(4-amino-3-(4-phenoxyphenyl)-1H-pyrazolo[3,4-d]pyrimidin-1-yl)piperidin-1-yl)methyl)-[1,4′-bipiperidin]-1′-yl)-2-(2,6-dioxopiperidin-3-yl)isoindoline-1,3-dione tetratrifluoroacetate] the IC50 (SU-DHL-6 cells) was 155 nM, the IC50 (SU-DHL-4 cells) was 295 nM and the IC50 (Mino cells; Homo sapiens) was 367 nM. For the same compound, the AUC(0-t) [1, 2] was 8.93 ± 4.3 ng·h/mL.
Compound `Nc1ncnc2c1c(-c1ccc(Oc3ccccc3)cc1)nn2C1CCN(C2CCN(C3CCN(C4CCN(C5CCN(c6ccc7c(c6)C(=O)N(C6CCC(=O)NC6=O)C7=O)CC5)CC4)CC3)CC2)CC1` (stereo not drawn) [Compound 14, 5-[4-[4-[4-[4-[4-[4-amino-3-(4-phenoxyphenyl)pyrazolo[3,4-d]pyrimidin-1-yl]-1-piperidyl]-1-piperidyl]-1-piperidyl]-1-piperidyl]-1-piperidyl]-2-(2,6-dioxo-3-piperidyl)isoindoline-1,3-dione Hexatrifluoroacetate] has an IC50 (SU-DHL-6 cells) of 86 nM and an IC50 (SU-DHL-4 cells) of 60 nM.
`Nc1ncnc2c1c(-c1ccc(Oc3ccccc3)cc1)nn2C1CCN(CC2CN(C3CCN(c4ccc5c(c4)C(=O)N(C4CCC(=O)NC4=O)C5=O)CC3)C2)CC1` (stereo not drawn) [Compound 10, 5-(4-(3-((4-(4-amino-3-(4-phenoxyphenyl)-1H-pyrazolo[3,4-d]pyrimidin-1-yl)piperidin-1-yl)methyl)azetidin-1-yl)piperidin-1-yl)-2-(2,6-dioxopiperidin-3-yl)isoindoline-1,3-dione Tetratrifluoroacetate] gave an IC50 (SU-DHL-6 cells) of 77 nM and an IC50 (Mino cells; Homo sapiens) of 405 nM.
`Nc1ncnc2c1c(-c1ccc(Oc3ccccc3)cc1)nn2[C@@H]1CCN(C2CCN(C3CN(c4ccc5c(c4)C(=O)N(C4CCC(=O)NC4=O)C5=O)C3)CC2)C[C@H]1F` (relative stereo) [Compound 20-1, trans-5-(3-(4-(4-amino-3-(4-phenoxyphenyl)-1H-pyrazolo[3,4-d]pyrimidin-1-yl)-3-fluoro-[1,4′-bipiperidin]-1′-yl)azetidin-1-yl)-2-(2,6-dioxopiperidin-3-yl)isoindoline-1,3-dione] showed an IC50 (Mino cells) of 32 nM and an AUC(0-t) ([1]; plasma) of 891 ± 164 ng·h/mL.
Work on `Nc1ncnc2c1c(-c1ccc(Oc3ccccc3)cc1)nn2C1CCN(C2CN(C3CCC(Oc4ccc5c(c4)C(=O)N(C4CCC(=O)NC4=O)C5=O)CC3)C2)CC1` (stereo not drawn) [Compound 37, 5-[4-[3-[4-[4-amino-3-(4-phenoxyphenyl)pyrazolo[3,4-d]pyrimidin-1-yl]-1-piperidyl]azetidin-1-yl]cyclohexoxy]-2-(2,6-dioxo-3-piperidyl)isoindoline-1,3-dione] yielded an IC50 (SU-DHL-4 cells) of 631 nM and an AUC(0-t) [1, 2] of 473 ± 105 ng·h/mL.
Compound `Nc1ncnc2c1c(-c1ccc(Oc3ccccc3)cc1)nn2C1CCN(C2CN(C3CN(c4cc5c(cc4F)C(=O)N(C4CCC(=O)NC4=O)C5=O)C3)C2)CC1` (stereo not drawn) [Compound 21, 5-(3-(4-(4-amino-3-(4-phenoxyphenyl)-1H-pyrazolo[3,4-d]pyrimidin-1-yl)piperidin-1-yl)-[1,3′-biazetidin]-1′-yl)-2-(2,6-dioxopiperidin-3-yl)-6-fluoroisoindoline-1,3-dione] has a bioavailability ([1]; Sprague-Dawley (SD), rat, plasma, po, i.g. 20 mg/kg (0.5% MC) vs i.v. 5 mg/kg) of 12.4 ± 3.8% and an AUC(0-t) [1, 2] of 3200 ± 973 ng·h/mL.
For `Nc1ncnc2c1c(-c1ccc(Oc3ccccc3)cc1)nn2C1CCN(C2CCN(C3CN(c4cc5c(cc4F)C(=O)N(C4CCC(=O)NC4=O)C5=O)C3)CC2)CC1` (stereo not drawn) [Compound 32, 5-(3-(4-(4-amino-3-(4-phenoxyphenyl)-1H-pyrazolo[3,4-d]pyrimidin-1-yl)-[1,4′-bipiperidin]-1′-yl)azetidin-1-yl)-2-(2,6-dioxopiperidin-3-yl)-6-fluoroisoindoline-1,3-dione], the IC50 (SU-DHL-6 cells) was 393 nM, the IC50 (SU-DHL-4 cells) was 330 nM and the IC50 (Mino cells; Homo sapiens) was 188 nM. It also gave an AUC(0-t) [1, 2] of 322 ± 64 ng·h/mL.
In the case of `Nc1ncnc2c1c(-c1ccc(Oc3ccccc3)cc1)nn2C1CCN(C2CCN(C3CN(c4ccc5c(c4)C(=O)N(C4CCC(=O)NC4=O)C5=O)C3)CC2F)CC1` (stereo not drawn) [Compound 49-2, cis-5-(3-(4-(4-amino-3-(4-phenoxyphenyl)-1H-pyrazolo[3,4-d]pyrimidin-1-yl)-3′-fluoro-[1,4′-bipiperidin]-1′-yl)azetidin-1-yl)-2-(2,6-dioxopiperidin-3-yl)isoindoline-1,3-dione-P2], the IC50 (Mino cells) is reported as 10 nM, the “F (%)” value ([1]; i.g. 20 mg/kg (0.5% MC) vs i.v. 5 mg/kg) is reported as 4.14 ± 2.1% and the AUC(0-t) ([1]; plasma) is reported as 475 ± 237 ng·h/mL.
In the case of `Nc1ncnc2c1c(-c1ccc(Oc3ccccc3)cc1)nn2C1CCN(C2CN(C3CN(c4ccc5c(c4)C(=O)N(C4CCC(=O)NC4=O)C5=O)C3)C2)CC1F` (stereo not drawn) [Compound 19, trans-5-(3-(4-(4-amino-3-(4-phenoxyphenyl)-1H-pyrazolo[3,4-d]pyrimidin-1-yl)-3-fluoropiperidin-1-yl)-[1,3′-biazetidin]-1′-yl)-2-(2,6-dioxopiperidin-3-yl)isoindoline-1,3-dione trifluoroacetate], the IC50 (SU-DHL-6 cells) is reported as 782 nM and the IC50 (Mino cells; Homo sapiens) is reported as 48 nM.
Work on `Nc1ncnc2c1c(-c1ccc(Oc3ccccc3)cc1)nn2C1CCN(C2CCN(C3CCN(c4ccc5c(c4)C(=O)N(C4CCC(=O)NC4=O)C5=O)CC3)CC2)CC1` (stereo not drawn) [Compound 2, 5-[4-[4-[4-[4-amino-3-(4-phenoxyphenyl)pyrazolo[3,4-d]pyrimidin-1-yl]-1-piperidyl]-1-piperidyl]-1-piperidyl]-2-(2,6-dioxo-3-piperidyl)isoindoline-1,3-dione] yielded an IC50 (SU-DHL-6 cells) of 26 nM, an IC50 (SU-DHL-4 cells) of 41 nM and an IC50 (Mino cells; Homo sapiens) of 633 nM. For the same compound, the AUC(0-t) [1, 2] was 18.6 ± 2.8 ng·h/mL.
